PMC5438914 (SLAS discovery, 2016)
Like-named read-outs stand apart in the source and are kept apart here.

Columns and labels:
[1] = system: eukaryotic protein synthesis in wheat germ cell extract; assay: wheat germ cell extract poly-Phe protein synthesis assay; assay type: biochemical; conditions: at 30 µM
PheRS [2] = target: T1, PheRS (Pseudomonas aeruginosa, UniProt Q9I0A3+Q9I0A4); assay: tRNA aminoacylation assay; assay type: biochemical
[3] = system: EF-Tu, EF-Ts, EF-G, and PheRS; assay: specificity assays against the accessory proteins of the A/T system; assay type: biochemical, Pseudomonas aeruginosa; conditions: tested against each of the four accessory proteins
PheRS [4] = target: T1, PheRS; assay: competition assays with PheRS substrates ATP and Phe; assay type: biochemical; conditions: IC50 at ATP 25-1000 µM or Phe 25-300 µM; data not shown
[5] = target: T2, human mitochondrial PheRS (hmPheRS) (Homo sapiens, UniProt O95363); assay: hmPheRS aminoacylation assay; assay type: biochemical; conditions: 0.4 to 200 µM; at high concentrations
T2 sequence (O95363 1-451): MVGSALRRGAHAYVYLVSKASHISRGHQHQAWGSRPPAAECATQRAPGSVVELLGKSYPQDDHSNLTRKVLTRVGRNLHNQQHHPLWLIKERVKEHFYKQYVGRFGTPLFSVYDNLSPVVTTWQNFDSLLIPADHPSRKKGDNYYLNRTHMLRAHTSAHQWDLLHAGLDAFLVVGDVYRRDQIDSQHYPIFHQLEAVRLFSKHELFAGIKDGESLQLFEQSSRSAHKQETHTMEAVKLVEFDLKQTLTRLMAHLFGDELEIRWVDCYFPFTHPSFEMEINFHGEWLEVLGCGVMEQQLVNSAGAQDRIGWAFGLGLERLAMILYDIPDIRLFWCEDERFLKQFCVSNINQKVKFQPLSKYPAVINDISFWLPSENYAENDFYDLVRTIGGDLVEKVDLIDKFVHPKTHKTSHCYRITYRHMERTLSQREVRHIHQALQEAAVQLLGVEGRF

H. influenzae = assay: time-kill experiments; conditions: 4× MIC; for bacteriostatic or bactericidal: 0 to 24 h
S. aureus = assay: time-kill experiments; conditions: 4× MIC; for bacteriostatic or bactericidal: 0 to 24 h
[6] = system: human embryonic kidney 293 cells (HEK-293); assay: MTT cytotoxicity test; conditions: HEK-293, MTT, 24 h
[7] = system: human embryonic kidney 293 cells (HEK-293)

T1 sequence (Q9I0A3 whole entry): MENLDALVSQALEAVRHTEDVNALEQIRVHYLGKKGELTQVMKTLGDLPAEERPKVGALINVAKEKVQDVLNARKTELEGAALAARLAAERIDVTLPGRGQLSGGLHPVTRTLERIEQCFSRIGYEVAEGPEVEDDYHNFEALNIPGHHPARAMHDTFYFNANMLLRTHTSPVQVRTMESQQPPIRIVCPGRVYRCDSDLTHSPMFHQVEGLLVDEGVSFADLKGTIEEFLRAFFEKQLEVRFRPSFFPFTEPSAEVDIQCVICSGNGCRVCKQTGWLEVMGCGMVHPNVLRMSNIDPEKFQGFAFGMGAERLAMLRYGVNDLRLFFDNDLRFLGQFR
T1 sequence (Q9I0A4 whole entry): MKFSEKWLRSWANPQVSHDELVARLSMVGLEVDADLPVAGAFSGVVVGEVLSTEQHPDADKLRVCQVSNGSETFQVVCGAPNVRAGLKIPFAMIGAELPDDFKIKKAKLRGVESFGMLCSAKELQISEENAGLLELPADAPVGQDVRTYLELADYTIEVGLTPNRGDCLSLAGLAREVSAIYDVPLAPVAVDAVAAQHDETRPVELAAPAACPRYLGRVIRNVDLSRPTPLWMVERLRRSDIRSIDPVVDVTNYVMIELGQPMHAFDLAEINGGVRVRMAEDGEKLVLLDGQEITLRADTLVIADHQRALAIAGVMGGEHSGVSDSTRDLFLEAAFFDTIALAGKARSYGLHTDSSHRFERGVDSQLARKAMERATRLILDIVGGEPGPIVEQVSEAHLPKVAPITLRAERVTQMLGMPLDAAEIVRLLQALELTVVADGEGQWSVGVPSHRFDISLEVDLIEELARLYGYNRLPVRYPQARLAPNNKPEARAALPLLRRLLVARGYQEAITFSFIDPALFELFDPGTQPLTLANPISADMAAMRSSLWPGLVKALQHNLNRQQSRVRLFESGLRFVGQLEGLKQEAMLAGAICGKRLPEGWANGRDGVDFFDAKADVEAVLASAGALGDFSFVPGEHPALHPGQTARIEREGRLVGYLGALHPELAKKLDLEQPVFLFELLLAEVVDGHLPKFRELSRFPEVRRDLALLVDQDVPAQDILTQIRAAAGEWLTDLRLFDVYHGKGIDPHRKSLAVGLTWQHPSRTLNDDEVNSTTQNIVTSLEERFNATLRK

Row | SMILES | inhibition of protein synthesis [1] | IC50 (PheRS [2]) [µM] | specificity for a single component of the A/T assay [3] | mechanism of inhibition with respect to ATP and Phe (PheRS [4]) | effect on the activity of hmPheRS [5] | bacteriostatic or bactericidal (H. influenzae) | decrease in colony-forming units (CFU) compared with the control (H. influenzae; during the first 6 h) [log10] | bacteriostatic or bactericidal (S. aureus) | decrease in colony-forming units (CFU) compared with the control (S. aureus; during the first 6 h) [log10] | IC50 (or CC50) for inhibition of cell growth [6] [µg/mL] | IC50 (or CC50) for inhibition of cell growth [7] [µg/mL] | growth in time-kill cultures (H. influenzae; up to 24 h) | growth in time-kill cultures (S. aureus; up to 24 h)
1 | C[C@@H]1C[C@@H]([C@H](O)CC2CC(=O)NC(=O)C2)C(=O)[C@@H](C)C1 [cycloheximide] | greater than 80% |  |  |  |  |  |  |  |  |  |  |  | 
2 | O=C(N/N=C/c1ccc([N+](=O)[O-])o1)c1cc([N+](=O)[O-])cc([N+](=O)[O-])c1O [BT06G06, nifursol] |  | 60.5 | specifically inhibit PheRS | noncompetitive with both of the natural substrates | only modestly affected | bacteriostatic | 2 to 4 | bacteriostatic | 2 to 4 | 18.5 |  |  | 
3 | N=C(N)NN=C(/C=C/c1ccc([N+](=O)[O-])o1)/C=C/c1ccc([N+](=O)[O-])o1 [BT06D07, difurazone] |  |  | did not inhibit an accessory protein |  |  | bactericidal |  | bactericidal |  |  | > 400 | inhibited the growth of both bacteria completely during all times tested | inhibited the growth of both bacteria completely during all times tested
